Measurements from the supplement of paper PMC10307832.

Tests used:
Assay in all cases: relative viability (nuclei count vs DMSO), 5 days (fraction); higher = more cells survive
Crenolanib + Olaparib = compound: CC1(COc2ccc3c(c2)ncn3-c2ccc3cccc(N4CCC(N)CC4)c3n2)COC1 [Crenolanib] + O=C(c1cc(Cc2n[nH]c(=O)c3ccccc23)ccc1F)N1CCN(C(=O)C2CC2)CC1 [Olaparib] (partner 8 µM)
In short: (§1)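 Cells from lung cancer lines were seeded into 1536-well plates and, one day later, dosed by pin tool. Treatments were either a single drug or a fixed dose of an anchor drug with five library-drug doses (not always all listed) in √10 steps. After 5 days, nuclei were stained in a one-step fixation (final 0.05% Triton X-100, 1% formaldehyde, 1 ug/ml Hoechst) and counted on 4× images, and relative viability is the treated-to-vehicle nuclei ratio, as the median of duplicate plates.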

Crenolanib + Pictilisib = compound: CC1(COc2ccc3c(c2)ncn3-c2ccc3cccc(N4CCC(N)CC4)c3n2)COC1 [Crenolanib] + CS(=O)(=O)N1CCN(Cc2cc3nc(-c4cccc5[nH]ncc45)nc(N4CCOCC4)c3s2)CC1 [Pictilisib] (partner 1 µM)
In short: as §1

Crenolanib + Bortezomib = compound: CC1(COc2ccc3c(c2)ncn3-c2ccc3cccc(N4CCC(N)CC4)c3n2)COC1 [Crenolanib] + CC(C)C[C@H](NC(=O)[C@H](Cc1ccccc1)NC(=O)c1cnccn1)B(O)O [Bortezomib] (partner 0.002 µM)
In short: as §1

Tivantinib + Dasatinib = compound: O=C1NC(=O)[C@@H](c2cn3c4c(cccc24)CCC3)[C@@H]1c1c[nH]c2ccccc12 [Tivantinib] + Cc1nc(Nc2ncc(C(=O)Nc3c(C)cccc3Cl)s2)cc(N2CCN(CCO)CC2)n1 [Dasatinib] (partner 0.075 µM)
In short: as §1

| Cell Line | relative viability (Crenolanib + Olaparib; first compound 0.01 µM) | relative viability (Crenolanib + Olaparib; first compound 0.03162 µM) | relative viability (Crenolanib + Olaparib; first compound 0.1 µM) | relative viability (Crenolanib + Olaparib; first compound 0.3162 µM) | relative viability (Crenolanib + Olaparib; first compound 1 µM) | relative viability (Crenolanib + Pictilisib; first compound 0.01 µM) | relative viability (Crenolanib + Pictilisib; first compound 0.03162 µM) | relative viability (Crenolanib + Pictilisib; first compound 0.1 µM) | relative viability (Crenolanib + Pictilisib; first compound 0.3162 µM) | relative viability (Crenolanib + Pictilisib; first compound 1 µM) | relative viability (Crenolanib + Bortezomib; first compound 0.01 µM) | relative viability (Crenolanib + Bortezomib; first compound 0.03162 µM) | relative viability (Crenolanib + Bortezomib; first compound 0.1 µM) | relative viability (Crenolanib + Bortezomib; first compound 0.3162 µM) | relative viability (Crenolanib + Bortezomib; first compound 1 µM) | relative viability (Tivantinib + Dasatinib; first compound 0.01 µM) | relative viability (Tivantinib + Dasatinib; first compound 0.03162 µM) | relative viability (Tivantinib + Dasatinib; first compound 0.1 µM) | relative viability (Tivantinib + Dasatinib; first compound 0.3162 µM) |
| --- | --- | --- | --- | --- | --- | --- | --- | --- | --- | --- | --- | --- | --- | --- | --- | --- | --- | --- | --- |
| LOU-NH91 | 0.943 | 0.88 | 0.837 | 0.971 | 0.905 | 0.595 | 0.525 | 0.473 | 0.56 | 0.53 | 0.336 | 0.474 | 0.45 | 0.49 | 0.513 | 0.586 | 0.565 | 0.568 | 0.464 |
| LU99A | 0.274 | 0.283 | 0.281 | 0.22 | 0.27 | 0.37 | 0.324 | 0.325 | 0.393 | 0.287 | 1.23 | 1.28 | 0.983 | 1.34 | 1.05 | 0.533 | 0.64 | 0.527 | 0.402 |
| LXF-289 | 1.08 | 0.954 | 1 | 1.16 | 1.08 | 0.761 | 0.666 | 0.733 | 0.916 | 0.755 | 1.07 | 0.996 | 0.935 | 1 | 0.95 | 0.302 | 0.261 | 0.19 | 0.175 |
| NCI-H23 | 0.311 | 0.278 | 0.282 | 0.347 | 0.341 | 0.482 | 0.484 | 0.399 | 0.487 | 0.351 | 0.892 | 1.2 | 0.865 | 1.16 | 0.696 | 0.876 | 0.809 | 0.699 | 0.782 |
| NCI-H322M | 0.741 | 0.779 | 0.651 | 0.806 | 0.795 | 0.519 | 0.499 | 0.527 | 0.517 | 0.493 | 1.36 | 0.923 | 1.1 | 1.27 | 1.4 | 0.25 | 0.234 | 0.273 | – |
| NCI-H441 | 0.602 | 0.524 | 0.608 | 0.56 | 0.535 | 0.497 | 0.502 | 0.483 | 0.527 | 0.56 | 0.29 | – | 0.535 | 0.446 | 0.557 | 0.801 | 0.555 | 0.356 | 0.433 |
| NCI-H460 | 0.445 | 0.366 | 0.405 | 0.438 | 0.415 | 0.379 | 0.306 | 0.316 | 0.363 | 0.308 | 1.05 | 1.2 | 1.01 | 1.6 | 0.954 | 0.461 | 0.35 | 0.484 | 0.492 |
| NCI-H520 | 0.367 | 0.258 | 0.33 | 0.288 | 0.338 | 0.267 | 0.324 | 0.326 | 0.295 | 0.301 | 0.481 | 0.528 | 0.824 | 0.779 | 0.628 | 0.204 | 0.185 | 0.193 | 0.221 |
| NCI-H596 | 0.731 | 0.806 | 0.68 | 0.64 | 0.681 | 0.351 | 0.398 | 0.342 | 0.353 | 0.397 | 0.929 | 1.07 | 0.998 | 0.981 | 1.17 | 0.486 | 0.543 | 0.635 | 0.619 |
